Laboratory results: ChEMBL document CHEMBL1131353, “Structurally similar small molecule photoaffinity CCK-A agonists and antagonists as novel tools for directly probing 7TM receptors-ligand interactions” (Bioorg Med Chem Lett, 1998)
Values belong to the compound of their own block, whether it stands above or below them.

Assays:
[1] = biological target: T1, Cholecystokinin receptor type A (Rattus norvegicus) (UniProt P30551); assay: In vitro efficacy was measured in rat Cholecystokinin type A receptor at 1.0 uM
T1 sequence (whole entry): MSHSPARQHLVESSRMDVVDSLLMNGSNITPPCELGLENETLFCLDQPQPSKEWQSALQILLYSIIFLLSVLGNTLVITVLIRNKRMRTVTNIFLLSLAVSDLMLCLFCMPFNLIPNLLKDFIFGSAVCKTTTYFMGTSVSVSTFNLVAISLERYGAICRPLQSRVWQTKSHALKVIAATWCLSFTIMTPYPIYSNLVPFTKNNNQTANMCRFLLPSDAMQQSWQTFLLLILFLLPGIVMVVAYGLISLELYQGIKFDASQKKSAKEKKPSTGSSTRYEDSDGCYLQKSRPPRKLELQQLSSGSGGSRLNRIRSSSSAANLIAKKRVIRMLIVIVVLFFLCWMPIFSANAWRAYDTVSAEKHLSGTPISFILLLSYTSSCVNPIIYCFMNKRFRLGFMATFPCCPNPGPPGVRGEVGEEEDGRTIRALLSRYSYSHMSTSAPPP

[2] = biological target: T2, Cholecystokinin receptor type A (Rattus norvegicus, UniProt P30551); assay: Displacement of 125I]-D-Tyr-Gly-[(Nle28,31)CCK-26-33] from rat cell membrane Cholecystokinin type A receptor
T2 sequence (P30551 whole entry): T1 sequence (whole entry)

[3] = organism: Rattus norvegicus; assay: Compound was tested in vitro for its ability to stimulate dispersed rat pancreatic acini to secrete amylase into the medium using CCK-8 as an agonist control; format: functional
[4] = organism: Rattus norvegicus; assay: Compound was tested in vitro for its ability to stimulate dispersed rat pancreatic acini to secrete amylase into the medium using CCK-8 as an agonist control; no activity detected at maximum concentration; format: functional

SMILES: CC(C)N(C(=O)CN1C(=O)C(NC(=O)Nc2cccc(C3(C(F)(F)F)N=N3)c2)C(=O)N(c2ccccc2)c2ccccc21)c1ccccc1 (centres undefined)
Efficacy [1]: 47%
IC50 [2]: 1300 nM
EC50 [3]: 930 nM

SMILES: COc1ccc(N(C(=O)CN2C(=O)C(NC(=O)Nc3ccccc3)C(=O)N(c3ccccc3)c3ccccc32)C(C)C)cc1 (centres undefined)
IC50 [2]: 50 nM

SMILES: CN(C(=O)CN1C(=O)C(NC(=O)Nc2cccc(C3(C(F)(F)F)N=N3)c2)C(=O)N(c2ccccc2)c2ccccc21)c1ccccc1 (centres undefined)
EC50 [4]: Not Active
IC50 [2]: 310 nM

SMILES: COc1ccc(N(C)C(=O)CN2C(=O)C(NC(=O)Nc3cccc(C(=O)c4ccccc4)c3)C(=O)N(c3ccccc3)c3ccccc32)cc1 (centres undefined)
EC50 [4]: Not Active
IC50 [2]: 350 nM

SMILES: CSCC[C@H](NC(=O)[C@H](Cc1ccc(OS(=O)(=O)O)cc1)NC(=O)[C@@H](N)CC(=O)O)C(=O)NCC(=O)N[C@@H](Cc1c[nH]c2ccccc12)C(=O)N[C@@H](CCSC)C(=O)N[C@@H](CC(=O)O)C(=O)N[C@@H](Cc1ccccc1)C(N)=O [SINCALIDE]
EC50 [3]: 0.014 nM

SMILES: COc1ccc(N(C)C(=O)CN2C(=O)C(NC(=O)Nc3ccccc3)C(=O)N(c3ccccc3)c3ccccc32)cc1 (centres undefined)
IC50 [2]: 390 nM

SMILES: COc1ccc(N(C)C(=O)CN2C(=O)C(NC(=O)Nc3cccc(C4(C(F)(F)F)N=N4)c3)C(=O)N(c3ccccc3)c3ccccc32)cc1 (centres undefined)
EC50 [4]: Not Active
IC50 [2]: 410 nM

Efficacy [1]: 68%
IC50 [2]: 80 nM
SMILES: COc1ccc(N(C(=O)CN2C(=O)C(NC(=O)Nc3cccc(C(=O)c4ccccc4)c3)C(=O)N(c3ccccc3)c3ccccc32)C(C)C)cc1 (centres undefined)
EC50 [3]: 460 nM

SMILES: CC(C)N(C(=O)CN1C(=O)C(NC(=O)Nc2ccccc2)C(=O)N(c2ccccc2)c2ccccc21)c1ccccc1 (centres undefined)
Efficacy [1]: 83%
EC50 [3]: 40 nM

SMILES: COc1ccc(N(C(=O)CN2C(=O)C(NC(=O)Nc3cccc(C4(C(F)(F)F)N=N4)c3)C(=O)N(c3ccccc3)c3ccccc32)C(C)C)cc1 (centres undefined)
Efficacy [1]: 75%
IC50 [2]: 440 nM
EC50 [3]: 600 nM

SMILES: CN(C(=O)CN1C(=O)C(NC(=O)Nc2cccc(C(=O)c3ccccc3)c2)C(=O)N(c2ccccc2)c2ccccc21)c1ccccc1 (centres undefined)
IC50 [2]: 290 nM

SMILES: CC(C)N(C(=O)CN1C(=O)C(NC(=O)Nc2cccc(C(=O)c3ccccc3)c2)C(=O)N(c2ccccc2)c2ccccc21)c1ccccc1 (centres undefined)
Efficacy [1]: 64%
IC50 [2]: 160 nM
EC50 [3]: 730 nM
